# In patent US20140315850A1, “2',3'-Dideoxy-2'-alpha-Fluoro-2'-beta-C-Methylnucleosides and Prodrugs Thereof” (Nanjing Molecular Research, Inc., priority 2011, published 2014):
# Assays:
# [1] = tested on: HCV subgenomic genotype 1b replicon; assay: cell-based HCV replicon assay (luciferase reporter); set-up: species or system hepatitis C virus (HCV); conditions: for EC50: Hepatitis C virus, Huh-7 cells, genotype 1b replicon luc-ubi-neo, 48 h incubation, luciferase activity, read-out: EC50 (concentration of drug inhibiting HCV by 50%); for anti-HCV activity (in words): replicon assay, genotype 1b
# Method: (§1) The anti-HCV activity and cytotoxicity of compounds disclosed herein were evaluated following patent method (WO/2007/027248).
# (§2) The anti-HCV activity and toxicity of the exemplary compounds can be tested in two biological assays—a cell-based HCV replicon assay and cytotoxicity assay (WO 2007/027248).
# A human hepatoma cell line (Huh-7) containing replicating HCV subgenomic genotype 1b replicon with a luciferase reporter gene (luc-ubi-neo) was used to evaluate anti-HCV activity of the compounds. In this assay, the level of luciferase signal correlates with the viral RNA replication directly. The HCV replicon-reporter cell line (NK/luc-ubi-neo) was cultured in DMEM medium supplemented with 10% fetal bovine serum and 0.5 mg/ml Geneticin (G418). Cells were maintained in a subconfluent state to ensure high levels of HCV replicon RNA synthesis.
# To evaluate the antiviral activity of compounds, serial dilutions were prepared with concentrations ranging from 0.14 to 300 μM. Diluted compounds were transferred to a 96-well plate followed by the addition of replicon cells (6000 cells per well). Cells were incubated with the compounds for 48 h after which luciferase activity was measured. Reduction of luciferase signal reflected the decrease of HCV replicon RNA in the treated cells and used to determine the EC50 value (concentration which yielded a 50% reduction in luciferase activity).
# [2] = Cytotoxicity assay (LTR-luc luciferase reporter); type: cell-based, human; conditions: human; Huh-7 LTR-luc cells, luciferase activity; read-out: CC50 (concentration of drug inhibiting cellular growth by 50%)
# Method: as §1, §2
# (§3) II. Cytotoxicity Assay A Huh-7 cell line carrying a luciferase reporter gene (driven by a HIV LTR promoter) stably integrated into the chromosome was used to analyze the cytotoxic effect of the selected compounds. This cell line (LTR-luc) was maintained in DMEM medium with 10% FBS. Design of the cytotoxicity assay was similar to that of the HCV replicon assay. Reduction of luciferase activity in the treated cells correlated with the cytotoxic effect of the test compound and was used to calculate the CC50 value (concentration that inhibited cell growth by 50%).
# [3] = tested on: Huh-7 cell line (LTR-luc); assay: Cytotoxicity assay (LTR-luc luciferase reporter); type: cell-based, human; conditions: in vitro
# Method: as §1, §2, §3
Compound,EC50 [1],CC50 [2],anti-HCV activity (in words) [1],cytotoxicity (in words) [3]
COc1nc(N)nc2c1ncn2C1OC(CO)C[C@@]1(C)F (some centres unmarked) [Compound 11],> 100 µM,> 100 µM,,
COc1nc(N)nc2c1ncn2C1OC(COP(=O)(NCc2ccccc2)OCc2ccccc2C)C[C@@]1(C)F (some centres unmarked) [Compound 17],< 1 µM,52.2 µM,potent anti-HCV activity,without significant cytotoxicity
COC(=O)[C@H](C)NP(=O)(OCC1C[C@@](C)(F)C(n2cnc3c(OC)nc(N)nc32)O1)Oc1ccccc1 (some centres unmarked) [Compound 18],< 1 µM,> 100 µM,potent anti-HCV activity,without significant cytotoxicity
COc1nc(N)nc2c1ncn2C1OC(CO[P@@](=O)(N[C@@H](C)C(=O)OC2CCCC2)Oc2ccccc2)C[C@@]1(C)F (some centres unmarked) [Compound 25],0.58 µM,> 100 µM,potent anti-HCV activity,without significant cytotoxicity
